Activity calls are given as the source filed them. The rule behind the calls is not given here.
Key:
THP-1 [1] = test: Induction of apoptosis in human THP-1 cells assessed as necrotic cells at 2.5 uM after 48 hrs by Annexin-V-FITC/PI staining based flow cytometric analysis (reference value: 0.19%); format: functional
U-937 [2] = test: Antitumor activity against human U-937 cells assessed as reduction in cell viability incubated for 72 hrs; format: functional, cell-based; conditions: U-937, 72 h
KG-1 [3] = test: Induction of reactive oxygen species production in human KG-1 cells at 1 to 5 uM measured after 48 hrs by DCF fluorescence analysis; format: functional, cell-based; conditions: dose 1-5 µM
U-937 [4] = test: Induction of apoptosis in human U-937 cells assessed as early apoptotic cells at 2.5 uM after 48 hrs by Annexin-V-FITC/PI staining based flow cytometric analysis (reference value: 2.87%); format: functional
KG-1 [5] = test: Induction of apoptosis in human KG-1 cells assessed as necrotic cells at 2.5 uM after 48 hrs by Annexin-V-FITC/PI staining based flow cytometric analysis (reference value: 2.73%); format: functional
U-937 [6] = test: Induction of apoptosis in human U-937 cells assessed as decrease in expression level of Bcl-2 measured after 48 hrs by Western blotting analysis; format: functional, cell-based; conditions: dose 1-5 µM
U-937 [7] = test: Induction of apoptosis in human U-937 cells assessed as necrotic cells at 2.5 uM after 48 hrs by Annexin-V-FITC/PI staining based flow cytometric analysis (reference value: 1.41%); format: functional
NB-4 [8] = test: Induction of apoptosis in human NB4 cells assessed as necrotic cells at 2.5 uM after 48 hrs by Annexin-V-FITC/PI staining based flow cytometric analysis (reference value: 0.29%); format: functional
NB-4 [9] = test: Induction of apoptosis in human NB4 cells assessed as accumulation of cells at sub-G1 phase at 2.5 uM after 48 hrs by PI staining based flow cytometric analysis; format: functional, cell-based
U-937 [10] = test: Induction of apoptosis in human U-937 cells assessed as late apoptotic cells at 2.5 uM after 48 hrs by Annexin-V-FITC/PI staining based flow cytometric analysis (reference value: 0.94%); format: functional
K562 [11] = test: Induction of apoptosis in human K562 cells assessed as decrease in expression level of caspase 3/9 measured at 1 to 5 uM after 48 hrs by Western blotting analysis; format: functional, cell-based; conditions: dose 1-5 µM
KG-1 [12] = test: Antitumor activity against human KG-1 cells assessed as reduction in cell viability incubated for 72 hrs; format: functional, cell-based; conditions: KG-1, 72 h
KG-1 [13] = test: Induction of apoptosis in human KG-1 cells assessed as accumulation of cells at sub-G1 phase at 2.5 uM after 48 hrs by PI staining based flow cytometric analysis; format: functional, cell-based
KG-1 [14] = test: Induction of apoptosis in human KG-1 cells assessed as decrease in expression level of caspase 3/9 measured at 1 to 5 uM after 48 hrs by Western blotting analysis; format: functional, cell-based; conditions: dose 1-5 µM
SK-OV-3 = test: Antitumor activity against taxol-resistant human SK-OV-3 cells assessed as reduction in cell viability incubated for 72 hrs; format: functional, cell-based; conditions: SK-OV-3, 72 h
SU-DHL-2 = test: Antitumor activity against human SUDHL2 cells assessed as reduction in cell viability incubated for 72 hrs; format: functional, cell-based; conditions: SU-DHL-2, 72 h
KG-1 [15] = test: Induction of apoptosis in human KG-1 cells assessed as early apoptotic cells at 2.5 uM after 48 hrs by Annexin-V-FITC/PI staining based flow cytometric analysis (reference value: 0.70%); format: functional
U-937 [16] = test: Induction of apoptosis in human U-937 cells assessed as accumulation of cells at G1 phase at 1 to 2.5 uM after 48 hrs by PI staining based flow cytometric analysis; format: functional, cell-based; conditions: dose 1-2.5 µM
THP-1 [17] = test: Induction of differentiation of human THP1 cells assessed as increase in CD11b expression at 0.5 uM measured after 72 hrs by flow cytometric analysis; format: functional, cell-based
NB-4 [18] = test: Induction of apoptosis in human NB4 cells assessed as decrease in expression level of caspase 3/9 measured at 1 to 5 uM after 48 hrs by Western blotting analysis; format: functional, cell-based; conditions: dose 1-5 µM
K562 [19] = test: Induction of apoptosis in human K562 cells assessed as viable cells at 2.5 uM after 48 hrs by Annexin-V-FITC/PI staining based flow cytometric analysis (reference value: 97.34%); format: functional; conditions: read-out: Activity
NB-4 [20] = test: Induction of apoptosis in human NB4 cells assessed as decrease in expression level of XIAP measured at 1 to 5 uM after 48 hrs by Western blotting analysis; format: functional, cell-based; conditions: dose 1-5 µM
HL-60 [21] = test: Induction of apoptosis in human HL-60 cells assessed as viable cells at 2.5 uM after 48 hrs by Annexin-V-FITC/PI staining based flow cytometric analysis (reference value: 96.05%); format: functional; conditions: read-out: Activity
U-937 [22] = test: Induction of apoptosis in human U-937 cells assessed as viable cells at 2.5 uM after 48 hrs by Annexin-V-FITC/PI staining based flow cytometric analysis (reference value: 94.78%); format: functional; conditions: read-out: Activity
U-937 [23] = test: Induction of apoptosis in human U-937 cells assessed as increase in expression level of p21 measured at 1 to 5 uM after 48 hrs by Western blotting analysis; format: functional, cell-based; conditions: dose 1-5 µM
THP-1 [24] = test: Induction of apoptosis in human THP-1 cells assessed as decrease in expression level of Bcl-2 measured after 48 hrs by Western blotting analysis; format: functional, cell-based; conditions: dose 1-5 µM
K562 [25] = test: Induction of apoptosis in human K562 cells assessed as necrotic cells at 2.5 uM after 48 hrs by Annexin-V-FITC/PI staining based flow cytometric analysis (reference value: 1.19%); format: functional
THP-1 [26] = test: Induction of apoptosis in human THP-1 cells assessed as increase in expression level of p21 measured at 1 to 5 uM after 48 hrs by Western blotting analysis; format: functional, cell-based; conditions: dose 1-5 µM
THP-1 [27] = test: Induction of reactive oxygen species production in human THP-1 cells at 1 to 5 uM measured after 48 hrs by DCFH-DA staining based flow cytometric analysis; format: functional, cell-based; conditions: dose 1-5 µM
KG-1 [28] = test: Induction of apoptosis in human KG-1 cells assessed as late apoptotic cells at 2.5 uM after 48 hrs by Annexin-V-FITC/PI staining based flow cytometric analysis (reference value: 0.16%); format: functional
K562 [29] = test: Induction of apoptosis in human K562 cells assessed as accumulation of cells at sub-G1 phase at 2.5 uM after 48 hrs by PI staining based flow cytometric analysis; format: functional, cell-based
HL-60 [30] = test: Induction of apoptosis in human HL-60 cells assessed as early apoptotic cells at 2.5 uM after 48 hrs by Annexin-V-FITC/PI staining based flow cytometric analysis (reference value: 0.68%); format: functional
KG-1 [31] = test: Induction of apoptosis in human KG-1 cells assessed as decrease in expression level of Bcl-2 measured after 48 hrs by Western blotting analysis; format: functional, cell-based; conditions: dose 1-5 µM
K562 [32] = test: Induction of apoptosis in human K562 cells assessed as decrease in expression level of XIAP measured at 1 to 5 uM after 48 hrs by Western blotting analysis; format: functional, cell-based; conditions: dose 1-5 µM
K562 [33] = test: Induction of apoptosis in human K562 cells assessed as late apoptotic cells at 2.5 uM after 48 hrs by Annexin-V-FITC/PI staining based flow cytometric analysis (reference value: 0.21%); format: functional
NB-4 [34] = test: Induction of apoptosis in human NB4 cells assessed as early apoptotic cells at 2.5 uM after 48 hrs by Annexin-V-FITC/PI staining based flow cytometric analysis (reference value: 0.86%); format: functional

## O=C1O[C@@]23C[C@@H](C=CC2=C1C(O)c1ccc([N+](=O)[O-])cc1)N1CCCC[C@H]13 (stereo partly specified)
THP-1 [1]
  Activity: 1.76%
U-937 [2]
  IC50: 1530 nM
KG-1 [3]
  Activity: Active
U-937 [4]
  Activity: 13.42%
KG-1 [5]
  Activity: 7.79%
U-937 [6]
  Activity: Dose-Dependent Effect
U-937 [7]
  Activity: 29.96%
NB-4 [8]
  Activity: 3.4%
NB-4 [9]
  Activity: Active
U-937 [10]
  Activity: 15.33%
K562 [11]
  Activity: Active
KG-1 [12]
  IC50: 1060 nM
KG-1 [13]
  Activity: Active
KG-1 [14]
  Activity: Active
SK-OV-3
  IC50: 3680 nM
SU-DHL-2
  IC50: 8680 nM
KG-1 [15]
  Activity: 0.33%
U-937 [16]
  Activity: Active
THP-1 [17]
  Activity: Active
NB-4 [18]
  Activity: Active
K562 [19]
  viability at 2.5 µM: 77.5%
NB-4 [20]
  Activity: Active
HL-60 [21]
  viability at 2.5 µM: 73%
U-937 [22]
  viability at 2.5 µM: 41.3%
U-937 [23]
  Activity: Active
THP-1 [24]
  Activity: Dose-Dependent Effect
K562 [25]
  Activity: 6.62%
THP-1 [26]
  Activity: Active
THP-1 [27]
  Activity: Active
KG-1 [28]
  Activity: 46.7%
K562 [29]
  Activity: Active
HL-60 [30]
  Activity: 18.2%
KG-1 [31]
  Activity: Dose-Dependent Effect
K562 [32]
  Activity: Active
K562 [33]
  Activity: 12.56%
NB-4 [34]
  Activity: 23.15%

Reference: ChEMBL document CHEMBL5252615, “Synthesis, biological activity and mechanism of action of novel allosecurinine derivatives as potential antitumor agents” (Bioorg Med Chem, 2023)
